Laboratory results published in patent publication US10253002B2, “Compounds and methods of treating infections” (Neoculi Pty Ltd., priority 2013, dated 2019).
In brackets after ≈: the same amount, converted by molar mass. Like-named read-outs stand apart in the source and are kept apart here.

What was measured:
[1] = test system: lipid synthesis in S. aureus ATCC 29213; experiment: Macromolecular synthesis assay: lipid synthesis ([3H] glycerol); format: cell-based, Staphylococcus aureus; details: at the MIC
Description: Cells were grown at 35° C. overnight on Trypticase Soy agar. A colony from the plate was used to inoculate 10 ml of Mueller Hinton broth II (MHBII), and the culture was grown to early exponential growth phase (OD600==0.2 to 0.3) while incubating in a shaker at 35° C. and 200 rpm.
Bacterial cells were grown to early exponential growth phase in MHBII broth and added to 1.5 mL eppendorf tubes (in triplicate) containing various concentrations of test compound or control antibiotics as described above. Following a 5 min incubation at room temperature, [^3H] glycerol was added at 0.5 μCi per reaction.
Reactions were allowed to proceed at room temperature for 15 min and then stopped through the addition of 375 μL chloroform/methanol (1:2) followed by vortexing for 20 seconds after each addition. Chloroform (125 μL) was then added to each reaction, vortexed, followed by the addition of 125 μL dH2O and vortexing. Reactions were centrifuged at 13,000 rpm for 10 min, and then 150 μL of the organic phase was transferred to a scintillation vial and allowed to dry in a fume hood for at least 1 hr. Samples were then counted via liquid scintillation counting.

[2] = test system: S. pneumoniae isolates; experiment: Micro-broth dilution MIC, Example 5; format: cell-based, Streptococcus pneumoniae
Description: For all in vitro assays, fresh pneumococcal isolates were grown overnight (O/N) on horse blood agar (HBA) plates (39 g/L Columbia blood agar base [Oxoid] 5% [v/v] defribinated horse blood [Oxoid] at 37° C. with 5% supplemented CO2). Mueller-Hinton blood agar with 5% defibrinated sheep blood (MHSBA Roseworthy Media and Blood Service) was used for disk diffusion analysis as directed by Clinical Laboratory Standards Institute (CLSI) standards. Pneumococci were routinely grown in broth consisting of 4% lysed horse blood (LHB) with Cation Adjusted Mueller Hinton Broth (CAHMB, [Difco]) at 37° C. with 5% supplemented CO2. […] Isolates were stored in HSB at −80° C.
(§1) [Micro-broth dilutions and 96 well trays are prepared by the following method: 90 μL of 4% LHB:CAMHB is aliquotted into all wells using a multichannel pipette. 90 μL of working antimicrobial stocks were no serial diluted down the tray by a 1:2 dilution. Negative broth controls and dilution control were taken into account when planning the set up of a 96 well tray.] 10 μL of bacterial suspension was then added to the appropriate wells in the 96 well tray. Appropriate positive (no antimicrobial), negative (no antimicrobial or bacteria) and negative dilution (a serial dilution control of antimicrobial and broth) controls were included in each assay. […] The MBC was determined by a 99.95% inhibition of S. pneumoniae, taking into account the dilution factor. MICs and MBCs were determined in quadruplicate and the mode was taken as the representative value. The MIC50, MIC90 and MIC range and MBC50, MBC90 and MBC range were determined according to CLSI standards. The MIC50 and MIC90, or MBC50 and MBC90, are defined by the lowest concentrations which, when all the MICs and MBCs of the isolates are arranged from lowest to highest, inhibited the 50th and 90th percentile of the total amount of isolates, respectively.

[3] = test system: Escherichia coli; experiment: Broth microdilution MIC, Example 7 (NCL812 and analogues); format: cell-based
[4] = test system: Salmonella arizonae; experiment: Broth microdilution MIC, Example 7; format: cell-based
Description: Minimum inhibitory concentrations (μg/ml) were determined using the broth microdilution method recommended by the Clinical and Laboratory Standards Institute (CLSI). […] Bacterial growth (turbidity) in the wells with antimicrobial was compared with the amount of growth (turbidity) in the growth-control well (containing no antimicrobial). All isolates were tested in duplicate, if there was a difference of greater than one two-fold dilution in the results, the test was repeated a third time. The purity of the isolates was closely monitored during testing by subculturing the prepared bacterial inoculum onto SBA (sheep blood agar). The MICs of the control strains for the antimicrobial ampicillin were determined for each testing run as an internal quality control. The MIC50, […] and MIC range (minimum and maximum) were calculated for each of the bacterial groups.

[5] = Bioassay ranking of the analogues tested; details: M + R (MRSA and VRE combined)
[6] = water containing 4% DMSO, following initial dilution in 100% DMSO; recent independent research; cited from earlier work
[7] = test system: S. pneumoniae isolates; experiment: MBC, Example 5; format: cell-based, Streptococcus pneumoniae
Description: as §1

[8] = Escherichia coli, read-out: MIC (μg/ml) at 24 hours, E. coli, 24 hours, 1st and 2nd replicate rows

Compound: N=C(N/N=C/c1ccc(Cl)cc1)N/N=C/c1ccc(Cl)cc1 [NCL812, 1,3-bis[(E)-(4-chlorophenyl)methyleneamino]guanidine]
- inhibition of lipid synthesis [1]: approximately 90%
- MIC ([2]; Streptococcus pneumoniae, read-out: Relative MIC with media type for D39, D39, 10% horse serum-supplemented broth): 32 µg/mL (≈ 95.7 µM)
- MIC (μg/ml) at 24 hours, E. coli ([3]; 24 hours, 1st and 2nd replicate rows): >128 µg/mL
- MIC ([3]; E. coli, 1st): >128 µg/mL
- MIC ([3]; E. coli, 2nd): >128 µg/mL
- MIC [3, 8]: > 128 µg/mL
- MIC ([3]; Escherichia coli, read-out: MIC): > 128 µg/mL
- MIC ([4]; S. arizonae, 1st): >128 µg/mL
- MIC ([4]; S. arizonae, 2nd): >128 µg/mL
- MIC ([4]; Salmonella enterica, Salmonella arizonae, read-out: MIC): > 128 µg/mL
- M + R [5]: 2.375 µg/mL
- solubility [6]: complete solubility

Compound: CC1(C)S[C@@H]2[C@H](NC(=O)[C@H](N)c3ccccc3)C(=O)N2[C@H]1C(=O)O [Ampicillin]
- MIC ([2]; Streptococcus pneumoniae, D39, 4% LHB:CAMHB, read-out: Relative MIC with media type for D39): 0.023 µg/mL (≈ 0.0658 µM)
- MIC ([2]; Streptococcus pneumoniae, D39, 10% horse serum-supplemented broth, read-out: Relative MIC with media type for D39): 0.09 µg/mL (≈ 0.258 µM)
- MIC ([2]; Streptococcus pneumoniae, isolate A66.1, Table 22, CAMHB diluent for NCL062, read-out: MIC): 0.045 µg/mL (≈ 0.129 µM)
- MIC ([2]; Streptococcus pneumoniae, isolate D39, Table 22, CAMHB diluent for NCL062, read-out: MIC): 0.0225 µg/mL (≈ 0.0644 µM)
- MIC ([2]; Streptococcus pneumoniae, isolate P21, Table 22, CAMHB diluent for NCL062, read-out: MIC): 0.0225 µg/mL (≈ 0.0644 µM)
- MIC ([2]; Streptococcus pneumoniae, isolate WCH57, Table 22, CAMHB diluent for NCL062, read-out: MIC): 0.09 µg/mL (≈ 0.258 µM)
- MIC ([2]; Streptococcus pneumoniae, isolate WCH158, Table 22, CAMHB diluent for NCL062, read-out: MIC): 0.0225 µg/mL (≈ 0.0644 µM)
- MIC ([2]; Streptococcus pneumoniae, isolate WU-2, Table 22, CAMHB diluent for NCL062, read-out: MIC): 0.0225 µg/mL (≈ 0.0644 µM)
- MIC ([2]; Streptococcus pneumoniae, pneumococcal isolate A66.1, read-out: MIC): 0.045 µg/mL (≈ 0.129 µM)
- MIC ([2]; Streptococcus pneumoniae, pneumococcal isolate D39, read-out: MIC): 0.023 µg/mL (≈ 0.0658 µM)
- MIC ([2]; Streptococcus pneumoniae, pneumococcal isolate EF3030, read-out: MIC): 0.023 µg/mL (≈ 0.0658 µM)
- MIC ([2]; Streptococcus pneumoniae, pneumococcal isolate L82016, read-out: MIC): 0.023 µg/mL (≈ 0.0658 µM)
- MIC ([2]; Streptococcus pneumoniae, pneumococcal isolate P9, read-out: MIC): 0.023 µg/mL (≈ 0.0658 µM)
- MIC ([2]; Streptococcus pneumoniae, pneumococcal isolate P21, read-out: MIC): 0.023 µg/mL (≈ 0.0658 µM)
- MIC ([2]; Streptococcus pneumoniae, pneumococcal isolate TIGR4, read-out: MIC): 0.023 µg/mL (≈ 0.0658 µM)
- MIC ([2]; Streptococcus pneumoniae, pneumococcal isolate WCH16, read-out: MIC): 0.023 µg/mL (≈ 0.0658 µM)
- MIC ([2]; Streptococcus pneumoniae, pneumococcal isolate WCH43, read-out: MIC): 0.023 µg/mL (≈ 0.0658 µM)
- MIC ([2]; Streptococcus pneumoniae, pneumococcal isolate WCH46, read-out: MIC): 0.023 µg/mL (≈ 0.0658 µM)
- MIC ([2]; Streptococcus pneumoniae, pneumococcal isolate WCH57, read-out: MIC): 0.023 µg/mL (≈ 0.0658 µM)
- MIC ([2]; Streptococcus pneumoniae, pneumococcal isolate WCH77, read-out: MIC): 0.023 µg/mL (≈ 0.0658 µM)
- MIC ([2]; Streptococcus pneumoniae, pneumococcal isolate WCH86, read-out: MIC): 0.023 µg/mL (≈ 0.0658 µM)
- MIC ([2]; Streptococcus pneumoniae, pneumococcal isolate WCH89, read-out: MIC): 0.023 µg/mL (≈ 0.0658 µM)
- MIC ([2]; Streptococcus pneumoniae, pneumococcal isolate WCH92, read-out: MIC): 0.09 µg/mL (≈ 0.258 µM)
- MIC ([2]; Streptococcus pneumoniae, pneumococcal isolate WCH137, read-out: MIC): 0.023 µg/mL (≈ 0.0658 µM)
- MIC ([2]; Streptococcus pneumoniae, pneumococcal isolate WCH158, read-out: MIC): 0.023 µg/mL (≈ 0.0658 µM)
- MIC ([2]; Streptococcus pneumoniae, pneumococcal isolate WCH184, read-out: MIC): 0.045 µg/mL (≈ 0.129 µM)
- MIC ([2]; Streptococcus pneumoniae, pneumococcal isolate WCH211, read-out: MIC): 0.023 µg/mL (≈ 0.0658 µM)
- MIC ([2]; Streptococcus pneumoniae, pneumococcal isolate WU2, read-out: MIC): 0.023 µg/mL (≈ 0.0658 µM)
- MIC50 ([2]; Streptococcus pneumoniae, all S. pneumoniae isolates, read-out: MIC50): 0.023 µg/mL (≈ 0.0658 µM)
- MIC90 ([2]; Streptococcus pneumoniae, all S. pneumoniae isolates, read-out: MIC90): 0.023 µg/mL (≈ 0.0658 µM)
- MIC range ([2]; all S. pneumoniae isolates): 0.011 to 0.09 µg/mL
- MBC ([7]; Streptococcus pneumoniae, isolate P21, Table 22, CAMHB diluent for NCL062, read-out: MBC): 0.045 µg/mL (≈ 0.129 µM)
- MBC ([7]; Streptococcus pneumoniae, isolate WCH57, Table 22, CAMHB diluent for NCL062, read-out: MBC): 0.09 µg/mL (≈ 0.258 µM)
- MBC ([7]; Streptococcus pneumoniae, isolate WCH158, Table 22, CAMHB diluent for NCL062, read-out: MBC): 0.022 µg/mL (≈ 0.063 µM)
- MBC ([7]; Streptococcus pneumoniae, pneumococcal isolate A66.1, read-out: MBC): 0.045 µg/mL (≈ 0.129 µM)
- MBC ([7]; Streptococcus pneumoniae, pneumococcal isolate D39, read-out: MBC): 0.023 µg/mL (≈ 0.0658 µM)
- MBC ([7]; Streptococcus pneumoniae, pneumococcal isolate EF3030, read-out: MBC): 0.023 µg/mL (≈ 0.0658 µM)
- MBC ([7]; Streptococcus pneumoniae, pneumococcal isolate L82016, read-out: MBC): 0.023 µg/mL (≈ 0.0658 µM)
- MBC ([7]; Streptococcus pneumoniae, pneumococcal isolate P9, read-out: MBC): 0.023 µg/mL (≈ 0.0658 µM)
- MBC ([7]; Streptococcus pneumoniae, pneumococcal isolate P21, read-out: MBC): 0.023 µg/mL (≈ 0.0658 µM)
- MBC ([7]; Streptococcus pneumoniae, pneumococcal isolate TIGR4, read-out: MBC): 0.023 µg/mL (≈ 0.0658 µM)
- MBC ([7]; Streptococcus pneumoniae, pneumococcal isolate WCH43, read-out: MBC): 0.023 µg/mL (≈ 0.0658 µM)
- MBC ([7]; Streptococcus pneumoniae, pneumococcal isolate WCH46, read-out: MBC): 0.045 µg/mL (≈ 0.129 µM)
- MBC ([7]; Streptococcus pneumoniae, pneumococcal isolate WCH57, read-out: MBC): 0.023 µg/mL (≈ 0.0658 µM)
- MBC ([7]; Streptococcus pneumoniae, pneumococcal isolate WCH77, read-out: MBC): 0.023 µg/mL (≈ 0.0658 µM)
- MBC ([7]; Streptococcus pneumoniae, pneumococcal isolate WCH86, read-out: MBC): 0.023 µg/mL (≈ 0.0658 µM)
- MBC ([7]; Streptococcus pneumoniae, pneumococcal isolate WCH89, read-out: MBC): 0.023 µg/mL (≈ 0.0658 µM)
- MBC ([7]; Streptococcus pneumoniae, pneumococcal isolate WCH92, read-out: MBC): 0.09 µg/mL (≈ 0.258 µM)
- MBC ([7]; Streptococcus pneumoniae, pneumococcal isolate WCH137, read-out: MBC): 0.023 µg/mL (≈ 0.0658 µM)
- MBC ([7]; Streptococcus pneumoniae, pneumococcal isolate WCH158, read-out: MBC): 0.023 µg/mL (≈ 0.0658 µM)
- MBC ([7]; Streptococcus pneumoniae, pneumococcal isolate WCH184, read-out: MBC): 0.045 µg/mL (≈ 0.129 µM)
- MBC ([7]; Streptococcus pneumoniae, pneumococcal isolate WCH211, read-out: MBC): 0.023 µg/mL (≈ 0.0658 µM)
- MBC ([7]; Streptococcus pneumoniae, pneumococcal isolate WU2, read-out: MBC): 0.023 µg/mL (≈ 0.0658 µM)
- MBC ([7]; Streptococcus pneumoniae, all S. pneumoniae isolates, read-out: MBC50): 0.023 µg/mL (≈ 0.0658 µM)
- MBC ([7]; Streptococcus pneumoniae, all S. pneumoniae isolates, read-out: MBC90): 0.023 µg/mL (≈ 0.0658 µM)
- MBC Range ([7]; all S. pneumoniae isolates): 0.011 to 0.09 µg/mL
- MBC ([7]; pneumococcal isolate WCH16): Autolysis
- MIC ([3]; E. coli, 2nd): 4 µg/mL (≈ 11.4 µM)
- MIC [3, 8]: 4 µg/mL (≈ 11.4 µM)
- MIC ([3]; Escherichia coli, E. coli, 1st, read-out: MIC): 4 µg/mL (≈ 11.4 µM)
- MIC ([4]; S. arizonae, 2nd): 1 µg/mL (≈ 2.86 µM)
- MIC ([4]; Salmonella enterica, S. arizonae, 1st, read-out: MIC): 1 µg/mL (≈ 2.86 µM)
